Data from patent US6737383B1, “Herbicidal oxadiazolidines” (priority 1999, dated 2004).

Assays:
soybean = experiment: Test B pre/postemergence soybean; format: in vivo, Glycine max
Method in brief: (§1)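 Herbicidal effect was estimated by eye on a ten-point control scale after plants spent twelve to sixteen days in a greenhouse following soil or foliar treatment. Foliar sprays targeted plants at one to four leaves; all doses were formulated in a non-phytotoxic solvent with surfactant.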

bamyardgrass = experiment: Test B flood test barnyardgrass; format: in vivo, Echinochloa crus-galli
Method in brief: (§2)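 Read-out is a visual response score from 0 (no effect) to 10 (complete control), assigned by comparison with untreated controls. Treatment was applied at the 2-leaf stage, and plants stayed in the greenhouse for twelve to sixteen days before scoring.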

wild oat = experiment: Test B pre/postemergence wild oat; format: in vivo, Avena fatua
Method in brief: as §1

corn = experiment: Test B pre/postemergence corn; format: in vivo, Zea mays
Method in brief: as §1

rape = experiment: Test B pre/postemergence rape; format: in vivo, Brassica napus
Method in brief: as §1

morningglory = experiment: Test B pre/postemergence morningglory; format: in vivo, Ipomoea hederacea
Method in brief: as §1

bedstraw = experiment: Test B pre/postemergence bedstraw; format: in vivo, Galium aparine
Method in brief: as §1

crabgrass = experiment: Test B pre/postemergence crabgrass; format: in vivo, Digitaria sanguinalis
Method in brief: as §1

giant foxtail = experiment: Test B pre/postemergence giant foxtail; format: in vivo, Setaria faberii
Method in brief: as §1

cocklebur = experiment: Test B pre/postemergence cocklebur; format: in vivo, Xanthium strumarium
Method in brief: as §1

velvetleaf = experiment: Test B pre/postemergence velvetleaf; format: in vivo, Abutilon theophrasti
Method in brief: as §1

surinam grass = experiment: Test B pre/postemergence surinam grass; format: in vivo, Brachiaria decumbens
Method in brief: as §1

smallflower flatsedge = experiment: Test B flood test smallflower flatsedge; format: in vivo, Cyperus difformis
Method in brief: as §2

duck salad = experiment: Test B flood test duck salad; format: in vivo, Heteranthera limosa
Method in brief: as §2

blackgrass = experiment: Test B pre/postemergence blackgrass; format: in vivo, Alopecurus myosuroides
Method in brief: as §1

wheat = experiment: Test B pre/postemergence wheat; format: in vivo, Triticum aestivum
Method in brief: as §1

[1] = Postemergence, Rate 62 g/ha, scale 0 to 10, 0 is no effect, 10 is complete control
[2] = Postemergence, Rate 125 g/ha, scale of 0 to 10 where 0 is no effect and 10 is complete control
[3] = Preemergence, Rate 62 g/ha, scale of 0 to 10 where 0 is no effect and 10 is complete control
[4] = Preemergence, Rate 125 g/ha, scale of 0 to 10 where 0 is no effect and 10 is complete control
[5] = Preemergence, Rate 250 g/ha, scale 0 to 10 (0 no effect, 10 complete control)
[6] = Preemergence, Rate 500 g/ha, scale of 0 to 10 where 0 is no effect and 10 is complete control
[7] = Rate 62 g/ha, flood test species, Pre-emergence, visual evaluation after twelve to sixteen days
[8] = Rate 125 g/ha, under heading Pre-emergence, flood test species, visual evaluation after twelve to sixteen days
[9] = Rate 250 g/ha, Pre-emergence (flood test species), scale 0 to 10, 0 is no effect, 10 is complete control
[10] = Rate 500 g/ha, Pre-emergence section of Table B, 0 to 10 scale (0 no effect, 10 complete control)
[11] = Postemergence, Rate 250 g/ha, scale of 0 to 10, 0 is no effect, 10 is complete control
[12] = Postemergence, Rate 500 g/ha, scale of 0 to 10 where 0 is no effect and 10 is complete control

CC(C)N(C(=O)n1oc(=O)n(Cc2nnc(Cl)s2)c1=O)c1ccc(F)cc1 [Compound 646] was tested, and the “Plant response rating, Soybean” value (soybean; [1]) was 0, the “Soybean plant response rating” value (soybean; [2]) was 1 and the “Soybean plant response rating” value (soybean; [3]) was 0. The “Soybean plant response rating” value (soybean; [4]) was 0, the “Plant response rating, Soybean” value (soybean; [5]) was 0 and the “Plant response rating, Soybean” value (soybean; [6]) was 0. The “Plant response rating, Barnyardgrass (0 to 10 scale, 0 is no effect, 10 is complete control)” value (bamyardgrass; [7]) was 0, the “Barnyardgrass plant response rating (0 to 10 scale, 0 is no effect, 10 is complete control)” value (bamyardgrass; [8]) was 0 and the “Barnyardgrass plant response rating” value (bamyardgrass; [9]) was 0. The “Barnyardgrass plant response rating” value (bamyardgrass; [10]) was 0, the “Plant response rating, Wild oats” value (wild oat; [1]) was 0 and the “Wild oats plant response rating” value (wild oat; [2]) was 0. The “Wild oats plant response rating” value (wild oat; [3]) was 0, the “Wild oats plant response rating” value (wild oat; [4]) was 0 and the “Plant response rating, Wild oats” value (wild oat; [5]) was 0. For the same compound, the “Plant response rating, Wild oats” value (wild oat; [6]) was 0, the “Plant response rating, Corn” value (corn; [1]) was 0 and the “Corn plant response rating” value (corn; [2]) was 0. For the same compound, the “Corn plant response rating” value (corn; [11]) was 0, the “Plant response rating, Corn” value (corn; [12]) was 0 and the “Corn plant response rating” value (corn; [3]) was 0. The “Corn plant response rating” value (corn; [4]) was 0, the “Plant response rating, Corn” value (corn; [5]) was 0 and the “Plant response rating, Corn” value (corn; [6]) was 0. The “Plant response rating, Rape” value (rape; [1]) was 0, the “Rape plant response rating” value (rape; [2]) was 0 and the “Plant response rating, Rape” value (rape; [12]) was 0. For the same compound, the “Rape plant response rating” value (rape; [3]) was 0, the “Rape plant response rating” value (rape; [4]) was 0 and the “Plant response rating, Rape” value (rape; [5]) was 0. The “Plant response rating, Rape” value (rape; [6]) was 0, the “Plant response rating, Morningglory” value (morningglory; [1]) was 0 and the “Morningglory plant response rating” value (morningglory; [2]) was 0. The “Morningglory plant response rating” value (morningglory; [11]) was 0, the “Plant response rating, Morningglory” value (morningglory; [12]) was 4 and the “Morningglory plant response rating” value (morningglory; [3]) was 0. The “Morningglory plant response rating” value (morningglory; [4]) was 0, the “Plant response rating, Morningglory” value (morningglory; [5]) was 0 and the “Plant response rating, Morningglory” value (morningglory; [6]) was 0. For the same compound, the “Plant response rating, Bedstraw” value (bedstraw; [1]) was 0, the “Bedstraw plant response rating” value (bedstraw; [11]) was 0 and the “Bedstraw plant response rating” value (bedstraw; [3]) was 0. The “Plant response rating, Crabgrass” value (crabgrass; [1]) was 0, the “Crabgrass plant response rating” value (crabgrass; [2]) was 0 and the “Crabgrass plant response rating” value (crabgrass; [11]) was 0. The “Plant response rating, Crabgrass” value (crabgrass; [12]) was 1, the “Crabgrass plant response rating” value (crabgrass; [4]) was 0 and the “Plant response rating, Crabgrass” value (crabgrass; [5]) was 0. For the same compound, the “Plant response rating, Crabgrass” value (crabgrass; [6]) was 0, the “Plant response rating, Giant foxtail” value (giant foxtail; [1]) was 0 and the “Giant foxtail plant response rating” value (giant foxtail; [2]) was 0. For the same compound, the “Giant foxtail plant response rating” value (giant foxtail; [11]) was 0, the “Plant response rating, Giant foxtail” value (giant foxtail; [12]) was 0 and the “Giant foxtail plant response rating” value (giant foxtail; [3]) was 0. The “Giant foxtail plant response rating” value (giant foxtail; [4]) was 0, the “Plant response rating, Giant foxtail” value (giant foxtail; [5]) was 0 and the “Plant response rating, Giant foxtail” value (giant foxtail; [6]) was 0. The “Plant response rating, Cocklebur” value (cocklebur; [1]) was 0, the “Cocklebur plant response rating” value (cocklebur; [2]) was 0 and the “Cocklebur plant response rating” value (cocklebur; [11]) was 0. For the same compound, the “Plant response rating, Cocklebur” value (cocklebur; [12]) was 0, the “Cocklebur plant response rating” value (cocklebur; [3]) was 0 and the “Cocklebur plant response rating” value (cocklebur; [4]) was 0. The “Plant response rating, Cocklebur” value (cocklebur; [5]) was 0, the “Plant response rating, Cocklebur” value (cocklebur; [6]) was 0 and the “Plant response rating, Velvetleaf” value (velvetleaf; [1]) was 0. The “Velvetleaf plant response rating” value (velvetleaf; [2]) was 0, the “Velvetleaf plant response rating” value (velvetleaf; [3]) was 0 and the “Velvetleaf plant response rating” value (velvetleaf; [4]) was 0. The “Plant response rating, Velvetleaf” value (velvetleaf; [5]) was 0, the “Plant response rating, Velvetleaf” value (velvetleaf; [6]) was 0 and the “Plant response rating, B. signalgrass” value (surinam grass; [1]) was 0. For the same compound, the “Plant response rating, B. signalgrass” value (surinam grass; [2]) was 0, the “B. signalgrass plant response rating” value (surinam grass; [11]) was 0 and the “Plant response rating, B. signalgrass” value (surinam grass; [12]) was 0. The “B. signalgrass plant response rating” value (surinam grass; [3]) was 0, the “B. signalgrass plant response rating” value (surinam grass; [4]) was 0 and the “Plant response rating, B. signalgrass” value (surinam grass; [5]) was 0. The “Plant response rating, B. signalgrass” value (surinam grass; [6]) was 0, the “Plant response rating, S. Flatsedge (0 to 10 scale, 0 is no effect, 10 is complete control)” value (smallflower flatsedge; [7]) was 0 and the “S. Flatsedge plant response rating (0 to 10 scale, 0 is no effect, 10 is complete control)” value (smallflower flatsedge; [8]) was 0. For the same compound, the “S. Flatsedge plant response rating” value (smallflower flatsedge; [9]) was 0, the “S. Flatsedge plant response rating” value (smallflower flatsedge; [10]) was 0 and the “Plant response rating, Ducksalad (0 to 10 scale, 0 is no effect, 10 is complete control)” value (duck salad; [7]) was 0. For the same compound, the “Ducksalad plant response rating (0 to 10 scale, 0 is no effect, 10 is complete control)” value (duck salad; [8]) was 0, the “Ducksalad plant response rating” value (duck salad; [9]) was 0 and the “Ducksalad plant response rating” value (duck salad; [10]) was 0. The “Plant response rating, Blackgrass” value (blackgrass; [1]) was 0, the “Blackgrass plant response rating” value (blackgrass; [2]) was 0 and the “Blackgrass plant response rating” value (blackgrass; [11]) was 0. For the same compound, the “Plant response rating, Blackgrass” value (blackgrass; [12]) was 0, the “Blackgrass plant response rating” value (blackgrass; [3]) was 0 and the “Blackgrass plant response rating” value (blackgrass; [4]) was 0. The “Plant response rating, Blackgrass” value (blackgrass; [5]) was 0, the “Plant response rating, Blackgrass” value (blackgrass; [6]) was 0 and the “Plant response rating, Wheat” value (wheat; [1]) was 0. For the same compound, the “Wheat plant response rating” value (wheat; [2]) was 0, the “Wheat plant response rating” value (wheat; [3]) was 0 and the “Wheat plant response rating” value (wheat; [4]) was 0. For the same compound, the “Plant response rating, Wheat” value (wheat; [5]) was 0 and the “Plant response rating, Wheat” value (wheat; [6]) was 0.
